{"source": "patent US20110104121A1", "about": "“Female Reproductive Tract and Anal Prophylaxes” (priority 2008, published 2011)", "key": {"[1]": {"test_system": "uterine epithelial cells (UTEC)", "test": "CCL20/MIP3α production by uterine (endometrium) epithelial cells on TLR agonist treatment", "assay_type": "cell-based, human", "description": "(§1) Materials and Methods. Source of Tissues Human uterine and Fallopian tube tissues were obtained from women undergoing hysterectomy. Tissues used in this study were collected from patients with benign conditions such as fibroids distal from the site of pathology. The sections were examined by a pathologist and proclaimed to be free of pathological lesions. A total of nine different patients were used to obtain uterine epithelial cells and a total of seven patients were used to obtain Fallopian tube epithelial cells.\n(§2) Epithelial cells were isolated according to known methods (Fahey, et al. (1999) supra; Fahey, et al. (1998) supra) as described herein.\n(§3) To establish a cell culture system of polarized human uterine epithelial cells (UTEC) and Fallopian tube epithelial cells (FTEC) with both apical and basolateral compartments, primary human UTEC and FTEC were cultured in Human Extracellular Matrix (Becton Dickenson, Franklin Lakes, N.J., USA)-coated Falcon cell culture inserts in 24-well culture plates (Fisher Scientific, Pittsburgh, Pa., USA). For these experiments, apical and basolateral compartments contained 300 and 850 μL of complete medium, respectively. The medium was changed every 2 days. […]\n(§4) Concentrations of CCL20/MIP3α in the apical and basolateral supernatants from human primary UTEC and FTEC were determined with an ELISA Duoset kit (R&D Systems, Minneapolis, Minn., USA) according to the manufacturer's protocol. Amounts of CCL20/MIP3α were quantified based on a standard curve after OD measurements at 450 nm on an ELISA reader (Dynex, Chantilly, Va., USA).\n(§5) Real-time RT-PCR was carried with a two-step protocol as described herein. […] As indicated herein, the software calculates the threshold cycle (Ct) for each reaction which was used to quantify the amount of starting template in the reaction."}, "[2]": {"test_system": "Fallopian tube epithelial cells (FTEC)", "test": "CCL20/MIP3α production by Fallopian tube epithelial cells on Poly(I:C) treatment", "assay_type": "cell-based, human", "description": "as §1, §2, §3, §4, §5"}, "[3]": {"test_system": "uterine epithelial cells", "test": "Trappin-2/Elafin production by uterine epithelial cells on Poly(I:C) stimulation", "assay_type": "cell-based, human", "details": "24 hour conditioned media, ELISA", "method": "(§6) Materials & Methods. A total of 11 different patients were used to obtain epithelial cells from the uterus, Fallopian tube, endocervix and ectocervix. Epithelial cells were isolated according to known methods (Fahey, et al. (1999) Am. J. Reprod. Immunol. 42(1):49-57; Fahey et al. (1998) Immunol. Invest. 27(3):167-80). Briefly, tissues were rinsed with 1×PBS and minced into 1-2 mm fragments prior to subjecting them to enzymatic digestion for 2 hours at 37° C. The enzyme mixture contained 3.4 mg/ml pancreatin (Invitrogen Life Technologies, Carlsbad, Calif.), 0.1 mg/ml hyaluronidase (Worthington Biochemical, Lakewood, N.J.), 1.6 mg/ml collagenase (Worthington Biochemical), and 2 mg/ml D-glucose, in 1×HBSS (Invitrogen Life Technologies). […] Epithelial cell sheets retained on the filter were recovered by rinsing and backwashing, centrifuged at 500×g for 10 minutes and analyzed for cell number and viability. […]\n(§7) Concentrations of Trappin-2/Elafin in the apical and basolateral supernatants from primary FRT epithelial cells and CVL from HIV(+) and (−) women were determined with an ELISA Duoset kit (R&D Systems, Minneapolis, Minn., USA) according to the manufacturer's protocol. […] Amounts of Trappin-2/Elafin were measured based on a standard curve after OD measurements at 450 nm on an ELISA reader (Dynex, Chantilly, Va., USA). […]"}, "[4]": {"test_system": "Fallopian tube, endocervix, and ectocervix epithelial cells", "test": "Trappin-2/Elafin production by Fallopian tube, endocervix and ectocervix epithelial cells on Poly(I:C) stimulation", "assay_type": "cell-based, human", "details": "4-6 patients per compartment", "method": "as §6, §7"}, "[5]": {"test_system": "HIV-1 R5/M-tropic BaL", "test": "TZM-bl infectivity assay, HIV-1 BaL", "assay_type": "cell-based", "method": "(§8) The TZM indicator cell line is a HeLa cell derivative that expresses high levels of CD4, CCR5 and CXCR4 (Wei, et al. (2002) Antimicrob. Agents Chemother. 46(6):1896-905). The cells contain HIV long terminal repeat (LTR)-driven β-galactosidase and luciferase reporter cassettes that are activated by HIV tat expression.\n(§9) TZM cells were seeded at 2×10^4 cells per well in a 96-well microtiter plate and allowed to adhere overnight at 37° C. Varying doses of recombinant human Trappin-2/Elafin (Peprotech, Rocky Hill, N.J.) were incubated with HIV-1 IIIB and BaL at multiplicity of infection (MOI) 1 for 1 hour at 37° C. in a final volume of 100 μl. Following incubation, the media was aspirated from TZM cells and the virus plus Trappin-2/Elafin was added to the cells along with 100 μl of TZM media. Luciferase activity was measured after 48 hours at 37° C. with 5% CO2 in a humidified incubator. Briefly, the supernatants were aspirated, and the cells were lysed with a BETA GLO luciferase assay substrate. Light intensity of each well was measured using a luminometer. Uninfected cells were used to determine background luminescence. All infectivity assays were performed in quadruplicate.\n(§10) Other experiments were conducted in order to determine whether the inhibitory effects of Trappin-2/Elafin were at the cell surface level such as the blocking of a co-receptor. For these experiments, varying doses of Trappin-2/Elafin were directly added to TZM cells and incubated for 1 hour at 37° C. prior to washing with 1×PBS and addition of IIIB or BaL viruses. In additional experiments to determine possible post-infection mechanisms of inhibition by Trappin-2/Elafin, TZM cells were infected with HIV-1 IIIB and BaL at MOI 1 and were washed at 6 hours and 24 hours post-infection followed by the addition of 10 ng/ml rTrappin-2/Elafin. Assays were developed at 48 hours by addition of the BETA-GLO substrate and measuring relative light units using a luminometer.\n(§11) Since HIV-1 is an important sexually transmitted pathogen, the activity of recombinant Trappin-2/Elaf in (rTrappin-2/Elafin) was evaluated against HIV-1 X4/T-tropic IIIB and R5/M-tropic BaL. HIV-1 IIIB and BaL were incubated with rTrappin-2/Elafin at 0.01, 0.1, 1, and 10 ng/ml for 1 hour at 37° C. TZM-bl indicator cells were plated the previous day at 25,000 cells per well and grown to 70-80% confluence. The virus-Trappin-2/Elafin mixture was added to the TZM cells and incubated for 48 hours at 37° C. At the end of the incubation period, BETA-GLO substrate was added to the cells and viral infection was quantified using a luminometer, expressed as relative light units (RLU). The data was expressed as percent of control with virus-only control set at 100%. […] Therefore, the concentrations of Trappin-2/Elafin showing anti-HIV-1 activity were in the range of physiological levels of this molecule that were secreted by the FRT epithelial cells. Since the inhibitory activity was observed as a result of pre-incubation of HIV-1 and rTrappin-2/Elafin, it is contemplated that the effect of Trappin-2/Elafin on viral infection was direct. […]\n(§12) Laboratory-adapted viral strains HIV-1 IIIB (×4) and BaL (R5) were obtained and virus stocks were propagated in PHA-stimulated human PBMC and stored frozen at −80° C. Virus stocks produced in PBMC of molecularly cloned HIV-1 NL4.3 (×4; lab-adapted) and YU-2.c (R5; directly cloned without culture) were obtained. Virus titers were determined on TZM-bl cells as described herein. Also used was a PBMC-derived virus stock of pCH077.c, a recently generated Clade B infectious molecular clone matching the nucleotide sequence determined to be the transmitted/founder virus sequence of CHAVI subject 700010077. […]"}, "[6]": {"test_system": "TZM cells", "assay_type": "cell-based, human", "method": "Viability of TZM cells upon treatment with Trappin-2/Elafin and CVL was quantified using the […] 96° AQueous One Solution Cell Proliferation Assay (Promega) according to manufacturer's instructions. Briefly, reagent was added directly to cell cultures and incubated for 1 hour at 37° C. followed by reading the plate in a plate reader at OD 490 nm."}, "[7]": {"test_system": "HIV-1 X4/T-tropic IIIB", "test": "TZM-bl infectivity assay, HIV-1 IIIB", "assay_type": "cell-based", "details": "for post-infection inhibition, IIIB: 1 ng/ml", "method": "as §8, §9, §10, §11, §12"}, "[8]": {"details": "cells pre-incubated with 0.1 and 1 ng/ml 1 hour, washed"}, "[9]": {"details": "virus pre-incubated 1 hour with 0.01, 0.1, 1, 10 ng/ml, 48 hours"}}, "data": [{"substance": "Poly(I:C)", "values": [{"measurement": "CCL20/MIP3α mRNA upregulation", "setting": "[1]; Poly(I:C) 25 μg/mL, 24 hours, five out of five patients", "value": "greater than two-fold"}, {"measurement": "endometrium CCL20/MIP3α secretion", "setting": "[1]; Poly(I:C) 24 hours, ELISA", "value": "significant increase"}, {"measurement": "CCL20/MIP3α level secreted by endometrium cells", "setting": "[1]; stimulated with Poly(I:C), constitutive 0.2-7 ng/mL", "value": "5 to 12", "unit": "ng/mL"}, {"measurement": "samples with CCL20/MIP3α mRNA upregulation", "setting": "[2]; Poly(I:C) 24 hours", "value": "two out of four samples"}, {"measurement": "Fallopian tube CCL20/MIP3α secretion", "setting": "[2]; Poly(I:C) 24 hours, ELISA", "value": "significant increase"}, {"measurement": "CCL20/MIP3α level secreted by Fallopian tube cells", "setting": "[2]; stimulated with Poly(I:C), constitutive 5-12 ng/mL", "value": "13 to 20", "unit": "ng/mL"}, {"measurement": "Trappin-2/Elafin secretion by UT epithelial cells", "setting": "[3]", "value": "significantly increased"}, {"measurement": "fraction of patients upregulating Trappin-2/Elafin", "setting": "[4]", "value": "approximately ⅓ typically responded"}]}, {"substance": "rTrappin-2/Elafin: recombinant human Trappin-2/Elafin (Peprotech), serine protease inhibitor (AQEPVKGPVSTKPGSCPIILIRCAMLNPPNRCLKDTDCPGIKKCCEGSCGMACFVPQ; UniProt P19957 61-117, looked up)", "values": [{"measurement": "post-infection inhibition, BaL", "setting": "[5]; added 6 and 24 hours post-infection, 1 ng/ml", "value": "no significant post-infection inhibition"}, {"measurement": "infectivity of TZM cells by BaL after pre-exposure of the cells", "setting": "[5]; [8]", "value": "no effect"}, {"measurement": "inhibition of BaL", "setting": "[5]; [9]", "value": "~60", "unit": "%"}, {"measurement": "toxic effect on the TZM cells (viability)", "setting": "[6]", "value": "not due to toxic effect"}, {"measurement": "post-infection inhibition, IIIB", "setting": "[7]; added 6 hours post-infection", "value": "no significant post-infection inhibition"}, {"measurement": "post-infection inhibition, IIIB", "setting": "[7]; added 24 hours post-infection", "value": "slight inhibition"}, {"measurement": "infectivity of TZM cells by IIIB after pre-exposure of the cells", "setting": "[7]; [8]", "value": "no effect"}, {"measurement": "inhibition of IIIB", "setting": "[7]; [9]", "value": "~80", "unit": "%"}]}]}
